“Also recorded” adds a separate entry of the source.
Tests used:
MC3T3 cells [1] = experiment: Cell proliferation and death; format: cell-based
MC3T3 cells [2] = experiment: mRNA expression levels by real-time PCR; format: cell-based, mouse
Description: Responses to Administration of Thapsigargin—Upregulation of transcription factors linked to bone formation as well as PERK: The effects of 10 nM thapsigargin on mRNA expression levels of ISR-linked genes (ATF4, ATF3, and CHOP) as well as genes involved in bone remodeling (Runx2, Osterix, and Rank1), were examined (FIG. 5). […] Out of 4 transcription factors (ATF4, ATF3, Runx2, and Osterix), the level of ATF4 mRNA was elevated 2-4 fold throughout the treatments. […] The mRNA level of type 1 collagen was elevated 5 h and 10 h for T1h (1 h exposure at 10 nM).
(§1) Responses to Administration of Salubrinal—In vitro responses to salubrinal: In order to evaluate the effects of salubrinal, MC3T3 E1 osteoblast-like cells and MLO-A5 osteocyte cells (Barragan-Adjemian, C., et al., “Mechanism by which MLO-A5 late osteoblasts/early osteocytes mineralize in culture: similarities with mineralization of lamellar bone,” Calcif. Tissue Int. 79:340-353 (2006)) were incubated with salubrinal at 100 nM-50 μM for 1-24 h. The mRNA levels of the selected genes, TF4, ATF3, Osteocalcin (OCN), and CHOP, were determined by real-time PCR. […] In MC3T3 cells, for instance, the Osteocalcin mRNA level, which is regulated by ATF4 and Runx2 (Xiao et al. 2005), was elevated 11.8±0.2 fold at 10 μM salubrinal in 24 h.

MLO-A5 osteocyte cells = experiment: mRNA levels by real-time PCR in osteocyte cells; format: cell-based; conditions: 100 nM-50 μM for 1-24 h
Description: as §1

MC3T3 cells [3] = experiment: Mineralization, von-Kossa staining; format: cell-based, mouse; conditions: 10 days
Description: To evaluate the effects of salubrinal on mineralization, MC3T3 cells were grown in the presence of 50 μg/ml of ascorbic acid and 5 mM β-glycerophosphate for 10 days with and without 10 or 50 μM salubrinal, and von-Kossa staining was conducted. Cells were fixed in 10% formalin and incubated in 5% silver nitrate for 30 min. After rinsing in PBS, staining was developed in 5% sodium carbonate for 2 min. They were counterstained with 0.1% nuclear fast red solution. […] In the field-of-view with 10× objective lens, the mean number of positive dots was 3.2-fold (10 μM salubrinal) and 2.9-fold (50 μM salubrinal) more than that for control cells without salubrinal treatment (FIG. 9).

[4] = test system: eIF2α-p (phosphorylated form of eukaryotic initiation factor 2—subunit α); experiment: Western analysis of eIF2α-p in response to salubrinal; format: cell-based, mouse; conditions: 10 μM or 50 μM, 1 to 5 h and 1 to 2 days
Source text: MS3T3 osteoblast-like cells were used to evaluate the level of eIF2α-p (phosphorylated form of eukaryotic initiation factor 2—subunit α) in response to salubrinal.

C57BL/6 mice = experiment: In vivo injection into intramedullary cavity of femora, BMD and BMC; set-up: species or system mouse
Description: Responses to Administration of Salubrinal—In vivo responses to salubrinal: In order to evaluate the effects of salubrinal in vivo, salubrinal was injected into an intramedullary cavity of the left femora of C57BL/6 mice and alterations in bone mineral density (BMD) and bone mineral content (BMC) were determined. There were 9 salubrinal treated mice as well as 9 placebo mice (injection of PBS). All mice received 4 injections of either salubrinal or PBS in the left femur, while the right femur was used as contralateral control. In four consecutive injections with a 0.5-inch #26-gauge needle and a Hamilton micro-syringe, the laterial side was used on the 1st and 3rd injetions and the medial side on the 2nd and 4th injections. An injection volume was 20 μl for salubrinal or PBS, and the salubrinal concentration was 50 μM. […] At the time of harvest (2 wks after the 1st injection), an increase in body weight in Salubrinal group (0.80±0.13 g) was higher than that in Placebo group (0.28±0.15 g; p<0.05). Harvested bone samples were analyzed with PIXImus (version 1.4, GE Medical System Lunar) for determination of BMD and BMC.

female SD rats = experiment: Rat femur healing of surgical wounds (micro CT); format: in vivo; set-up: wound size decreased vs control / reduction in wound size / cortical thickness increased vs control: concentration or dose not given beside the values; conditions: for cortical thickness / cortical thickness increased vs control: femur anterior hole; for cortical thickness increase: femur posterior hole; for reduction in wound size: femur posterior holes
Description: Rat femur—healing of surgical wounds. A surgical hole with ˜2.0 mm in diameter was generated in the left and right femurs of twenty female SD rats (˜8 weeks, body weight ˜180 g). The holes were drilled through the femur from the anterior surface to the opposite cortex (posterior surface) in the middle of the femur. During the first 5 days, 100 μl of salubrinal solution at dosage of 0.025 mg/kg was injected subcutaneously to the left limb and a PBS solution (vehicle control) in the right limb. The injection site was closed to the anterior surgical hole. Rats were sacrificed on days 10 or 20 after surgery, and the axial and transverse hole sizes as well as cortical thickness (1.5 mm proximal and distal to the center of the hole) were determined with micro CT. […] Regarding the anterior holes, the size of the wounds 10 days after surgery was smaller in the salubrinal treated group by 10.8% (1.905±0.018 mm in control and 1.700±0.021 mm in salubrinal; p<0.001). The size in 20 day samples was further decreased by 18.0% (1.812±0.017 mm in control and 1.486±0.026 mm in salubrinal; p<0.001). […] Note that the reduction in the wound size on day 20 was more significant than those on day 10 in both the anterior and posterior holes (both p<0.001) (FIG. 15B).

[5] = test system: rat pheochromocytoma cell line; conditions: cited from earlier work
rat brain = conditions: intra-cerebroventricular or intra-peritoneal administration; cited from earlier work
[6] = test system: brainstem motoneurons in mice; conditions: hypoxia and reoxygenation events; cited from earlier work
mouse hippocampus = conditions: direct injection; cited from earlier work

O=C(/C=C/c1ccccc1)NC(NC(=S)Nc1cccc2cccnc12)C(Cl)(Cl)Cl (stereo not drawn) [salubrinal]
cell death (MC3T3 cells [1]; 50 μM, no statistical difference (p>0.05)): reduced cell death
cell proliferation or death (MC3T3 cells [1]; 10 or 50 μM for 24 h): did not alter
Osteocalcin mRNA level (MC3T3 cells [2]; 10 μM in 24 h): 11.8±0.2 fold
mRNA levels of the selected genes (TF4, ATF3, Osteocalcin, CHOP) (MC3T3 cells [2]; MC3T3 cells, 100 nM-50 μM for 1-24 h): upregulated
mRNA levels of the selected genes (MLO-A5 osteocyte cells): did not show any significant alterations
mean number of von-Kossa positive dots vs control cells (MC3T3 cells [3]; 10 μM): 3.2 fold
mean number of von-Kossa positive dots vs control cells (MC3T3 cells [3]; 50 μM): 2.9 fold
phosphorylated level of eIF2α [4]: Elevated
BMC vs contralateral control (C57BL/6 mice; femur, 20 μl 50 μM injection): trend to elevate; also recorded: Increased
BMD vs contralateral control (C57BL/6 mice; femur, 20 μl 50 μM injection): Increased
BMD (C57BL/6 mice; injected femur, mean±s.e.m.): 0.0456±0.0011 g/cm^2
cortical thickness (female SD rats; day 10): 0.476±0.012 mm
cortical thickness increased vs control (female SD rats; day 10): 11.0%
cortical thickness (female SD rats; day 20): 0.551±0.014 mm
cortical thickness increased vs control (female SD rats; day 20): 25.7%
size of the wounds (female SD rats; femur anterior holes, 10 days): 1.700±0.021 mm
wound size smaller vs control (female SD rats; femur anterior holes, 10 days, 0.025 mg/kg s.c. first 5 days): 10.8%
size of the wounds (female SD rats; femur anterior holes, 20 days): 1.486±0.026 mm
wound size decreased vs control (female SD rats; femur anterior holes, 20 days): 18.0%
cortical thickness increase (female SD rats; postoperative 10 days): 13.8%
cortical thickness increase (female SD rats; postoperative 20 days): 21.3%
reduction in wound size (female SD rats; postoperative 10 days): 4.1%
reduction in wound size (female SD rats; postoperative 20 days): 11.1%
protection from ER stress-induced apoptosis [5]: protect
excitotoxic neuronal death in vivo (rat brain): decreased
motoneuronal injury [6]: suppressed
ATF4-dependent long-term synaptic plasticity and memory (mouse hippocampus): modulated

Source: patent publication US20120295935A1, “MIXED AMINAL PHARMACEUTICAL COMPOSITIONS AND USES THEREOF” (priority 2010, published 2012)
